Test results taken from the OligoGym collection.
Values joined by “and” are separate entries in the source; they are usually repeats but may differ in a detail not shown here. Equal values may be shown once. After the bases stand the sugars from the 5' end (letter, count) and the backbone: PS all phosphorothioate, else s phosphorothioate and o phosphodiester by linkage. Methylation of C is not given here. e = 2'-O-(2-methoxyethyl) (MOE); k = constrained ethyl (cEt); d = 2'-deoxy (DNA)

Legend:
[1] = molecular target: SOD1; details: ASO
[2] = molecular target: MALAT1; details: ASO, A431, 0.005 µM

| Sequence | target mRNA inhibition [2] | further results |
| --- | --- | --- |
| AGGATACATTTCTACAG (sugars e2 k2 d9 k2 e2, PS) | – | target mRNA inhibition ([1]; HepG2, 0.1875 µM): 9%; target mRNA inhibition ([1]; HepG2, 0.75 µM): 52%; target mRNA inhibition ([1]; HepG2, 3 µM): 81%; target mRNA inhibition ([1]; HepG2, 4 µM): 77%; target mRNA inhibition ([1]; HepG2, 12 µM): 95% |
| AGGTACTTTAAAGCAAC (sugars e2 k2 d8 k2 e3, PS) | – | target mRNA inhibition ([1]; HepG2, 5 µM): 35% |
| AGGTACTTTAAAGCAAC (sugars e2 k2 d9 k2 e2, PS) | – | target mRNA inhibition ([1]; HepG2, 5 µM): 42% |
| AGTGATCATAAATCAGT (sugars e2 k2 d8 k2 e3, PS) | – | target mRNA inhibition ([1]; HepG2, 5 µM): 23% |
| AGTGCCATACAGGGTTT (sugars e2 k2 d8 k2 e3, PS) | – | target mRNA inhibition ([1]; HepG2, 5 µM): 20% |
| AGTGCCATACAGGGTTT (sugars e2 k2 d9 k2 e2, PS) | – | target mRNA inhibition ([1]; HepG2, 5 µM): 27% |
| AGTGCCATACAGGGTTT (sugars e3 k2 d7 k2 e3, PS) | – | target mRNA inhibition ([1]; HepG2, 3 µM): 9% |
| TGGACATTGCCTCTTC (sugars k3 d10 k3, PS) | 29% | – |
| TGGCATATGCAGATAA (sugars k3 d10 k3, PS) | 69% and 89% | – |
| TGGCGATGTGGCAGAG (sugars k3 d10 k3, PS) | 35% | – |
| TGGTACACCCAGTGGC (sugars k3 d10 k3, PS) | 17% | – |
| TGTAAAACATTGCCTA (sugars k3 d10 k3, PS) | -7% | – |
| TGTAGTTAATGTCAGC (sugars k3 d10 k3, PS) | 67% and 42% | – |
| TGTCAATTAATGCTAG (sugars k3 d10 k3, PS) | 42% | – |
| TGTGATAGTTCAGGGC (sugars k3 d10 k3, PS) | -12% | – |
| TGTTCGAGAAATCGGA (sugars k3 d10 k3, PS) | 17% | – |
| TTAAAAAGGCTCGATG (sugars k3 d10 k3, PS) | 21% | – |
| TTAAATGACGCAATTC (sugars k3 d10 k3, PS) | 4% | – |
| TTAAATTACACCAGTC (sugars k3 d10 k3, PS) | 50% and 65% | – |
| TTAAATTGATGGGCTT (sugars k3 d10 k3, PS) | 22% | – |

| Sequence | target mRNA inhibition [2] | further results |
| --- | --- | --- |
| TTAAGAGAAGCCCAGG (sugars k3 d10 k3, PS) | 24% | – |
| TTAATCACCTTCGGTT (sugars k3 d10 k3, PS) | 27% | – |
| TTAATGTAGTGTAACA (sugars k3 d10 k3, PS) | 30% | – |
| TTACAAAACGAATTCA (sugars k3 d10 k3, PS) | 10% | – |
| TTACACCAGTCCTTTT (sugars k3 d10 k3, PS) | 37% | – |
| TTACACCTCAGTACGA (sugars k3 d10 k3, PS) | 15% | – |
| TTACGAAAGTCCTTCA (sugars k3 d10 k3, PS) | 28% | – |
| TTACTTTCCATTACGC (sugars k3 d10 k3, PS) | 16% | – |
| TTAGAGAAGAATCCCC (sugars k3 d10 k3, PS) | 31% | – |
| TTAGAGGGCCTCTATT (sugars k3 d10 k3, PS) | 3% | – |
| TTATATTAGGTTCTCG (sugars k3 d10 k3, PS) | -6% | – |
| TTATCCCTAACATGCA (sugars k3 d10 k3, PS) | 8% | – |
| TTATGGAACTTGAATG (sugars k3 d10 k3, PS) | 7% | – |
| TTATTCCAGGATTAAT (sugars k3 d10 k3, PS) | -5% | – |
| TTCAACTGGGAATACT (sugars k3 d10 k3, PS) | 17% | – |
| TTCCCTATATAAGGTC (sugars k3 d10 k3, PS) | 6% | – |
| TTCCGCCGCCTCTTAA (sugars k3 d10 k3, PS) | 22% | – |
| TTCCGCTAAGATGCTA (sugars k3 d10 k3, PS) | 9% | – |
| TTCCGTTACGAAAGTC (sugars k3 d10 k3, PS) | 33% | – |
| TTCCTAGCTTCACCAC (sugars k3 d10 k3, PS) | 36% | – |

| Sequence | target mRNA inhibition [2] | further results |
| --- | --- | --- |
| TTCCTTATTTAGAGGG (sugars k3 d10 k3, PS) | 14% | – |
| TTCCTTTCATAGAGCC (sugars k3 d10 k3, PS) | 70% and 88% | – |
| TTCGCAGACAAAGTTT (sugars k3 d10 k3, PS) | 22% | – |
| TTCTACCGTTTTTCAG (sugars k3 d10 k3, PS) | 10% | – |
| TTGAAACCGATTATGG (sugars k3 d10 k3, PS) | 42% | – |
| TTGACAAGCAATTAAC (sugars k3 d10 k3, PS) | 7% | – |
| TTGAGGCAAGTCCTCA (sugars k3 d10 k3, PS) | 3% | – |
| TTGAGGGACAGTAGGT (sugars k3 d10 k3, PS) | 21% | – |
| TTGCCCCTCCCCTTTA (sugars k3 d10 k3, PS) | 42% | – |
| TTGCTTACACACAACT (sugars k3 d10 k3, PS) | 18% | – |
| TTGGCCTACTCAAGCT (sugars k3 d10 k3, PS) | -8% | – |
| TTTACAGAAGTCTCGG (sugars k3 d10 k3, PS) | -31% | – |
| TTTAGAGGGCCTCTAT (sugars k3 d10 k3, PS) | 17% | – |
| TTTAGGATTCTAGACA (sugars k3 d10 k3, PS) | 25% | – |
| TTTATAGACGGAGAAC (sugars k3 d10 k3, PS) | -6% | – |
| TTTGAGTATGCTGATA (sugars k3 d10 k3, PS) | 47% | – |
| TTTTTGTGGTTATAGC (sugars k3 d10 k3, PS) | 75% and 88% | – |
| TTTTTGTTCGAGAAAT (sugars k3 d10 k3, PS) | -7% | – |
